Where “and” joins values, the source holds several entries; their conditions need not be identical. Equal values may be shown once.
Columns and labels:
[1] = tested on: patients with mild-to-moderate hypertension and abdominal adiposity; assay: Energy expenditure and substrate oxidation by indirect calorimetry; format: in vivo, human; settings: LCZ696 400 mg QD or amlodipine 10 mg QD; for Respiratory quotient (carbon dioxide to oxygen ratio), Day 57 adjusted mean (95% CI): Day 57, at rest
Protocol: (§1) At baseline and week 8, peripheral insulin sensitivity (hyperinsulinemic-euglycemic glucose clamp), abdominal subcutaneous adipose tissue lipolysis (microdialysis), whole-body lipolysis (glycerol tracer kinetics), energy expenditure and substrate oxidation (indirect calorimetry) were determined.
Energy expenditure and substrate oxidation were assessed in parallel by indirect calorimetry using a ventilated hood system. The ventilated hood measurements were recorded for 30 minutes in the resting state (during the flow calibration phase).

[2] = tested on: patients with mild-to-moderate hypertension and abdominal adiposity; assay: Abdominal subcutaneous adipose tissue microdialysis (local lipolysis); format: in vivo, human; settings: for Glucose in adipose tissue microdialysate, adjusted geometric mean ratio Day 57 vs Day 1 / Lactate in adipose tissue microdialysate, adjusted geometric mean ratio Day 57 vs Day 1 / Glycerol (free) in adipose tissue microdialysate, adjusted geometric mean ratio Day 57 vs Day 1 / interstitial glycerol levels at week 8 (subcutaneous adipose tissue lipolysis at rest): at rest; for Glycerol (free) in adipose tissue microdialysate, adjusted geometric mean ratio Day 57 vs Day 1: 8 weeks treatment; for interstitial glycerol levels at week 8 (subcutaneous adipose tissue lipolysis at rest): p=0.003 between groups
Protocol: Assessment of lipolysis at rest was performed on Day 1 prior to first dosage and on Day 57. Abdominal subcutaneous adipose tissue lipolysis was assessed by microdialysis in the fasting condition. […] Microdialysate samples for measurement of the analytes were collected at 30 minutes and 45 minutes in the flow calibration phase. Glycerol (an indicator of local lipolysis), glucose, and lactate concentrations were measured in the microdialysate, reflecting the interstitial concentrations in the adipose tissue. The ethanol ratio (ratio of ethanol concentration in dialysate to ethanol concentration in perfusate) was measured as an indicator of adipose tissue blood flow. For abdominal subcutaneous adipose tissue microdialysate data (ethanol ratio, dialysate lactate, dialysate glucose, and plasma glycerol, glycerol, NEFA, glucose, insulin, adrenalin, and noradrenalin) at rest, data was analyzed using repeated measures analysis on log transformed values with treatment, visit, time and treatment*visit*time interaction as fixed effects.

[3] = tested on: patients with mild-to-moderate hypertension and abdominal adiposity; assay: Safety assessments (adverse events); format: in vivo, human; settings: for Discontinuations due to AEs: LCZ696 N = 50, amlodipine N = 48
Protocol: Safety assessments included adverse events (AEs) and serious adverse events (SAEs) and were conducted throughout the study by regular monitoring of hematology, blood chemistry and urine analysis as well as assessments of vital signs (BP and pulse measurements), ECG, physical condition and body weight. The pharmacodynamics (PD) analysis set included all patients with available PD data and no protocol deviations with relevant impact on PD data. The safety analysis set included all patients who received any of the study drugs.

[4] = tested on: patients with mild-to-moderate hypertension and abdominal adiposity; assay: Blood pressure monitoring (mean seated BP); format: in vivo, human; settings: Day 57 vs baseline; LCZ696 400 mg QD or amlodipine 10 mg QD
Description: Seating BP was monitored at screening and throughout the study using the same equipment. During the home stay period, patients were given a home measurement device and instructed to monitor BP twice weekly at approximately the same time each morning (7-9 AM).

[5] = tested on: patients with mild-to-moderate hypertension and abdominal adiposity; assay: Hyperinsulinemic-euglycemic glucose clamp (insulin sensitivity), clinical study NCT01631864; format: in vivo, human; settings: for Glucose infusion rate by body weight (Mbw), Day 56, adjusted mean / Insulin sensitivity index, Day 56, adjusted mean: Day 56 (week 8)
Protocol: as §1
Patients were also stratified into 4 groups based on the baseline Homeostasis Model Assessment of Insulin Resistance (HOMA-IR) (<2.5 and ≥2.5) and use of statin therapy within 8 weeks prior to randomization.
The HEGC assessment was performed on Day −1 (baseline) and on Day 56 under fasting conditions. A dorsal hand vein was catheterized and kept warm for arterialized blood sampling and the contralateral arm was cathetered for the infusion of glucose and insulin. […] Blood samples to determine glucose levels during the HEGC were collected continuously (automated clamp) or at approximately 5-min intervals (manual clamp). The last 30 minutes (minutes 90-120) of the clamp were considered as the steady state period and the mean glucose infusion rate was calculated for this time period.
The insulin sensitivity index (SI) was calculated from steady-state glucose infusion rates, and plasma insulin and glucose concentrations at steady-state (SI: Glucose infusion rate/[plasma glucose×plasma insulin], μg/kg*min/[mmol/L*pmol/L]). Furthermore whole-body glucose disposal rate (M, mg/min) was calculated from the mean glucose infusion rate at steady state to assess peripheral insulin sensitivity. Finally, the metabolic clearance rate (MCR) was calculated from M-value and the mean blood glucose concentration (BG) at steady-state (MCR: M/BG, min*mmol). The glucose disposal rate was also expressed per unit of insulin at steady-state, calculated from M-value and plasma insulin concentrations (M/l, U/min).
Differences between treatments for change in SI from baseline were analyzed as above.

[6] = tested on: patients with mild-to-moderate hypertension and abdominal adiposity; assay: Abdominal subcutaneous adipose tissue microdialysis (local lipolysis); format: in vivo, human
[7] = tested on: patients with impaired glucose tolerance and cardiovascular disease or risk factors; settings: valsartan for 5 years, along with lifestyle modification; cited from earlier work
[8] = safety analysis set, 8-week treatment
[9] = LCZ696 400 mg QD or amlodipine 10 mg QD
[10] = LCZ696 400 mg QD or amlodipine 10 mg QD, listed as AML
[11] = baseline to Day 56, LCZ696 400 mg QD or amlodipine 10 mg QD, 8 weeks
[12] = 15 min exercise, p=0.014 between groups
[13] = 30 min exercise, p=0.010 between groups

SMILES: CCOC(=O)C1=C(COCCN)NC(C)=C(C(=O)OC)C1c1ccccc1Cl (stereo not drawn) [Amlodipine, reference compound]
- Respiratory quotient (carbon dioxide to oxygen ratio), Day 57 adjusted mean (95% CI) [1]: 0.77 (0.746; 0.804)
- Resting energy expenditure, Day 57 adjusted mean (95% CI) [1]: 1991.4 (1904.82; 2078.01) kcal
- Glucose in adipose tissue microdialysate, adjusted geometric mean ratio Day 57 vs Day 1 ([2]; 30 + 45 min combined, (95% CI)): 0.99 (0.85; 1.16)
- Lactate in adipose tissue microdialysate, adjusted geometric mean ratio Day 57 vs Day 1 ([2]; 30 + 45 min combined, (95% CI)): 0.90 (0.70; 1.16)
- Glycerol (free) in adipose tissue microdialysate, adjusted geometric mean ratio Day 57 vs Day 1 ([2]; 30 + 45 min time points combined, (95% CI)): 0.86 (0.75; 0.97)
- Glycerol (free) in adipose tissue microdialysate, adjusted geometric mean ratio Day 57 vs Day 1 ([2]; 30 min time point, (95% CI)): 0.87 (0.76; 0.99)
- Glucose in adipose tissue microdialysate, adjusted geometric mean ratio Day 57 vs Day 1 ([2]; 30 min time point, (95% CI)): 1.00 (0.85; 1.16)
- Lactate in adipose tissue microdialysate, adjusted geometric mean ratio Day 57 vs Day 1 ([2]; 30 min time point, (95% CI)): 0.91 (0.69; 1.19)
- Glycerol (free) in adipose tissue microdialysate, adjusted geometric mean ratio Day 57 vs Day 1 ([2]; 45 min time point, (95% CI)): 0.85 (0.74; 0.98)
- Glucose in adipose tissue microdialysate, adjusted geometric mean ratio Day 57 vs Day 1 ([2]; 45 min time point, (95% CI)): 0.98 (0.83; 1.16)
- Lactate in adipose tissue microdialysate, adjusted geometric mean ratio Day 57 vs Day 1 ([2]; 45 min time point, (95% CI)): 0.90 (0.70; 1.16)
- interstitial glycerol levels at week 8 (subcutaneous adipose tissue lipolysis at rest) [2]: 63.99 µmol/L
- Discontinuations due to AEs ([3]; 8-week treatment): three
- AEs suspected to be study drug related [3, 8]: 46%
- Peripheral edema reported [3, 8]: 16 patients
- overall incidence of AEs [3, 8]: 77.1%
- mean reduction in msDBP (mean seated diastolic blood pressure) [4]: −10.0±7.8 mmHg
- mean reduction in msSBP (mean seated systolic blood pressure) [4]: −12.4±14.7 mmHg
- Glucose infusion rate by body weight (Mbw), Day 56, adjusted mean [5, 9]: 3.87 mg/(min * kg)
- Insulin sensitivity index, Day 56, adjusted mean [5, 9]: 1.75 μg/kg * min/(mmol/L * pmol/L)
- Glucose infusion rate by body weight (Mbw), Day 56, adjusted mean [5, 10]: 3.88 mg/(min * kg)
- Insulin sensitivity index, Day 56, adjusted mean [5, 10]: 1.76 μg/kg * min/(mmol/L * pmol/L)
- Glucose infusion rate by body weight (Mbw), adjusted mean change from baseline [5, 11]: 0.03 mg/(min * kg)
- Insulin sensitivity index, adjusted mean change from baseline [5, 11]: 0.065 μg/kg * min/(mmol/L * pmol/L)
- Insulin sensitivity index, adjusted mean change from baseline ([5]; baseline to Day 56, LCZ696 400 mg QD or amlodipine 10 mg QD, 8 weeks, listed as amlodipine): +0.065 μg/kg * min/(mmol/L * pmol/L)
- microdialysate glycerol at week 8 [6, 12]: 128.8 µmol/L
- microdialysate glycerol at week 8 [6, 13]: 149.19 µmol/L

SMILES: CCCCC(=O)N(Cc1ccc(-c2ccccc2-c2nn[n-]n2)cc1)C(C(=O)[O-])C(C)C.CCOC(=O)C(C)CC(Cc1ccc(-c2ccccc2)cc1)NC(=O)CCC(=O)[O-].[Na+].[Na+].[Na+] [LCZ696, trisodium [3-((1S,3R)-1-biphenyl-4-ylmethyl-3-ethoxycarbonyl-1-butylcarbamoyl)propionate-(S)-3′-methyl-2′-(pentanoyl{2″-(tetrazol-5-ylate)biphenyl-4′-ylmethyl}amino)butyrate] hemipentahydrate]
- Respiratory quotient (carbon dioxide to oxygen ratio), Day 57 adjusted mean (95% CI) [1]: 0.78 (0.760; 0.814)
- Resting energy expenditure, Day 57 adjusted mean (95% CI) [1]: 1960.1 (1879.42; 2040.90) kcal
- Glucose in adipose tissue microdialysate, adjusted geometric mean ratio Day 57 vs Day 1 ([2]; 30 + 45 min combined, (95% CI)): 1.02 (0.88; 1.18)
- Lactate in adipose tissue microdialysate, adjusted geometric mean ratio Day 57 vs Day 1 ([2]; 30 + 45 min combined, (95% CI)): 0.84 (0.66; 1.06)
- Glucose, Treatment differences, ratio of GMR (LCZ696 vs amlodipine) ([2]; 30 + 45 min combined, (95% CI)): 1.03 (0.83; 1.27)
- Lactate, Treatment differences, ratio of GMR (LCZ696 vs amlodipine) ([2]; 30 + 45 min combined, (95% CI)): 0.93 (0.65; 1.31)
- Glycerol (free) in adipose tissue microdialysate, adjusted geometric mean ratio Day 57 vs Day 1 ([2]; 30 min time point, (95% CI)): 1.02 (0.90; 1.16)
- Glucose in adipose tissue microdialysate, adjusted geometric mean ratio Day 57 vs Day 1 ([2]; 30 min time point, (95% CI)): 1.03 (0.86; 1.20)
- Lactate in adipose tissue microdialysate, adjusted geometric mean ratio Day 57 vs Day 1 ([2]; 30 min time point, (95% CI)): 0.81 (0.63; 1.04)
- Glucose, Treatment differences, ratio of GMR (LCZ696 vs amlodipine) ([2]; 30 min time point, (95% CI)): 1.03 (0.82; 1.29)
- Glycerol (free), Treatment differences, ratio of GMR (LCZ696 vs amlodipine) ([2]; 30 min time point, (95% CI)): 1.18 (0.96; 1.43)
- Lactate, Treatment differences, ratio of GMR (LCZ696 vs amlodipine) ([2]; 30 min time point, (95% CI)): 0.89 (0.62; 1.29)
- Glycerol (free) in adipose tissue microdialysate, adjusted geometric mean ratio Day 57 vs Day 1 ([2]; 45 min time point, (95% CI)): 1.07 (0.94; 1.22)
- Glucose in adipose tissue microdialysate, adjusted geometric mean ratio Day 57 vs Day 1 ([2]; 45 min time point, (95% CI)): 1.01 (0.86; 1.18)
- Lactate in adipose tissue microdialysate, adjusted geometric mean ratio Day 57 vs Day 1 ([2]; 45 min time point, (95% CI)): 0.86 (0.68; 1.09)
- Glucose, Treatment differences, ratio of GMR (LCZ696 vs amlodipine) ([2]; 45 min time point, (95% CI)): 1.03 (0.82; 1.29)
- Lactate, Treatment differences, ratio of GMR (LCZ696 vs amlodipine) ([2]; 45 min time point, (95% CI)): 0.96 (0.68; 1.36)
- change in ethanol ratio (indicator of adipose tissue blood flow), between treatment groups ([2]; LCZ696 vs amlodipine, any time point except 45 minute time point in the LCZ696 group (small, not considered relevant)): No significant differences
- interstitial glycerol levels at week 8 (subcutaneous adipose tissue lipolysis at rest) [2]: 80.53 µmol/L
- Discontinuations due to AEs ([3]; 8-week treatment): two
- mild orthostatic hypertension reported ([3]; both resolved by the end of the study, suspected to be related to study drug): Two
- AEs suspected to be study drug related [3, 8]: 24%
- Peripheral edema reported [3, 8]: one
- Pruritus reported [3, 8]: five
- overall incidence of AEs [3, 8]: 60.0%
- mean reduction in msDBP (mean seated diastolic blood pressure) [4]: −12.4±9.1 mmHg
- mean reduction in msSBP (mean seated systolic blood pressure) [4]: −21.0±16.1 mmHg
- Glucose infusion rate by body weight (Mbw), Day 56, adjusted mean [5, 9]: 4.49 mg/(min * kg)
- Insulin sensitivity index, Day 56, adjusted mean [5, 9]: 1.88 μg/kg * min/(mmol/L * pmol/L) and 1.86 μg/kg * min/(mmol/L * pmol/L)
- Metabolic clearance rate, Day 56, adjusted mean ([5]; Day 56, LCZ696 400 mg QD or amlodipine 10 mg QD): 79.07 mmol·min
- Insulin sensitivity index, Treatment Difference (LCZ696-Amlodipine) ([5]; difference in adjusted mean change from baseline to Day 56 (95% CI), not statistically significant): 0.128 (−0.155; 0.410) μg/kg * min/(mmol/L * pmol/L)
- Glucose infusion rate by body weight (Mbw), Treatment Difference (LCZ696-Amlodipine) ([5]; difference in adjusted mean change from baseline to Day 56 (95% CI), p = 0.016): 0.61 (0.12; 1.11) mg/(min * kg)
- Metabolic clearance rate, Treatment Difference (LCZ696-Amlodipine) ([5]; difference in adjusted mean change from baseline to Day 56 (95% CI), p = 0.0312): 9.66 (0.89; 18.42) min * mmol
- microdialysate glycerol at week 8 [6, 12]: 153.1 µmol/L
- microdialysate glycerol at week 8 [6, 13]: 187.63 µmol/L

SMILES: CCCCC(=O)N(Cc1ccc(-c2ccccc2-c2nnn[nH]2)cc1)[C@H](C(=O)O)C(C)C [valsartan, S—N-valeryl-N-{[2′-(1H-tetrazole-5-yl)-biphenyl-4-yl]-methyl}-valine]
- relative reduction in the incidence of diabetes [7]: 14%

— patent publication US20180140579A1, “SACUBITRIL AND VALSARTAN FOR TREATING METABOLIC DISEASE” (NOVARTIS AG, priority 2015, published 2018)
